In publication PMC7875539 (Science Advances, 2021):

Tests used:
Settings in all cases: 100 mM KCl, 5 mM MgCl2, 20 mM Hepes pH 7.5, 25 °C; CBS domain nucleotide site
[1] = molecular target: TpCorC CBS domain (Thermus parvatiensis, UniProt A0A109QFA5)
[2] = molecular target: TpCorC CBS domain (Thermus parvatiensis, UniProt A0A109QFA5, T336I)
[3] = molecular target: TpCorC CBS domain (Thermus parvatiensis, UniProt A0A109QFA5, Y255A)
Sequence of TpCorC CBS domain (Thermus parvatiensis, UniProt A0A109QFA5, Y255A) (A0A109QFA5 202-361 Y255A limits assumed): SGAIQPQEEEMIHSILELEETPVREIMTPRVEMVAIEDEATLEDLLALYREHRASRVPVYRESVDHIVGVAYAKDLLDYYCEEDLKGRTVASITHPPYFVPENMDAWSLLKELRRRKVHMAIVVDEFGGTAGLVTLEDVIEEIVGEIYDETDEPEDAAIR

Sequence of TpCorC CBS domain (Thermus parvatiensis, UniProt A0A109QFA5) (A0A109QFA5 202-361 limits assumed): as the sequence (A0A109QFA5 202-361 Y255A limits assumed) above, with A54Y counted along it
Sequence of TpCorC CBS domain (Thermus parvatiensis, UniProt A0A109QFA5, T336I) (A0A109QFA5 202-361 T336I limits assumed): as the sequence (A0A109QFA5 202-361 Y255A limits assumed) above, with A54Y, T135I counted along it

Kd [1]: 0.46 µM
Kd [2]: 9.4 µM
Kd [3]: 2.8 µM
Compound: Nc1ncnc2c1ncn2[C@@H]1O[C@H](COP(=O)(O)OP(=O)(O)OP(=O)(O)O)[C@@H](O)[C@H]1O [ATP]
